# According to US9394338B2, “Glutathione analogs and uses thereof” (REGENTS OF THE UNIVERSITY OF MINNESOTA, priority 2011, dated 2016):
# How the values were obtained:
# [1] = tested on: SH-SY-5Y cells; assay: Protection against H2O2 cytotoxicity, MTT assay; type: cell-based, human; conditions: preincubation 24 h, H2O2 50 μM 30 min
# Procedure: Similar procedures were used for determining the protective effect of GSH and its analog against H2O2 cytotoxicity. After preincubation of cells with GSH or Ψ-GSH for 24 hours, cells were exposed to H2O2 (50 μM) for 30 min and the media was replaced with fresh media. Cells were incubated for an additional 24 h after which the cell viability was the determined by the MTT assay as described earlier.
# [2] = target: T1, yeast glyoxalase I (Saccharomyces cerevisiae, UniProt P50107); assay: Glyoxalase I enzyme kinetics assay; type: biochemical; conditions: yeast Glx-I, MG, 30° C., phosphate buffer pH 6.6
# T1 construct: purchased Sigma
# T1 sequence (P50107 1-326): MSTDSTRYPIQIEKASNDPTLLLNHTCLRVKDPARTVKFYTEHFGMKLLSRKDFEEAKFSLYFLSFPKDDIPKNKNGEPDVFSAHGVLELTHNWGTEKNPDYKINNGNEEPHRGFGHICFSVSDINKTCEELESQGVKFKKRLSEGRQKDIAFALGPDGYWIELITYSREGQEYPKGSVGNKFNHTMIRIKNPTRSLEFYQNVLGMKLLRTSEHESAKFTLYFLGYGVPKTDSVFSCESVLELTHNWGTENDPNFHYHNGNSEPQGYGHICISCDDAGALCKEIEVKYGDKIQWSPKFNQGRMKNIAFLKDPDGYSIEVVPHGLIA
# Procedure: Glyoxalase I Enzyme Kinetics Assay. The glutathione analog, Ψ-GSH and asparthione were examined for their ability to act as substrates for the yeast glyoxalase I mediated […] of MG. The commercial 40% methylglyoxal solution was distilled to remove polymerization products. Enzyme assays were performed (30° C., 0.05 M phosphate buffer (pH 6.6)) using a thermostated Beckman DU® 7400 spectrophotometer. Fresh solutions of GSH, Ψ-GSH and asparthione were prepared on the day of the assays with distilled, deionized water. In each assay, the cell contained a total volume of 3.0 mL which was no more than 6.0 mM with respect to methylglyoxal and 1.3 mM with respect to GSH or its analogs. […] Data were analyzed utilizing an Enzyme kinetics module of Sigmaplot 9.0 from Systat Software Inc.
# [3] = tested on: SH-SY-5Y cells; assay: H2O2 and MG-induced cellular oxidative stress (DCFH-DA); type: cell-based, human; conditions: for intracellular ROS after H2O2 exposure: H2O2 500 μM, co-incubation with 250 μM compound; for ROS generated by MG treatment: MG 1 mM, 180 min, 250 μM compound
# Procedure: H2O2 and MG-Induced Cellular Oxidative Stress. SH-SY-5Y cells were cultured in 96-well black plates at the density of 10,000 cells/well and were allowed to reach confluence (˜48 h). The cells were then treated with a solution of 2,7-dichlorofluorescin diacetate (DCFH-DA, 20 μM) in RPMI 1640 medium without FBS for 45 min. Extracellular DCFH-DA was removed by washing twice with PBS. To induce oxidative stress, the cells were treated with hydrogen peroxide (500 μM) or methylglyoxal (1 mM) in RPMI media without FBS in presence and absence of GSH or Ψ-GSH (250 μM) for 90 min or 180 min at 37° C. in the dark. The cells were washed with PBS and then lysed by adding 250 μl of 90% DMSO/10% PBS for 10 min in the dark at room temperature with shaking. The fluorescence intensity in each well was measured in the fluorescence plate reader (BioTek SynergyHT, VT, USA) at an excitation of 485 nm and an emission of 538 nm and normalized to the protein content in each well as determined by the BCA assay. (Wang et al., Free Radic. Res. 2008, 42, 435-441)
# [4] = tested on: SH-SY-5Y cells; assay: Determination of intracellular MG concentration after glucose treatment; type: cell-based, human; conditions: 50 mM glucose three days, compound 500 μM
# Procedure: Determination of Intracellular MG Concentration. SHSY5Y cells were seeded in a T150 flask and allowed to grow for 24 h. The next day, cells were treated with glucose (50 mM) in the presence and the absence of GSH or Ψ-GSH (500 μM). Cells without glucose treatment were used as a control. After 3 days of treatment, the cell pellet was collected and sonicated in 1 mL of PBS buffer to obtain cell lysates, which were derivatized as follows: 1 mL of cell lysate+0.2 mL 5 M HClO4+0.2 mL 10 mM 1,2 diaminobenzene+0.1 mL 1 μM 5-methylquinoxaline (internal std.)+0.5 mL water to 2 mL final volume. Samples were incubated at room temperature overnight and then centrifuged. The supernatant was passed through a C-18 SPE cartridge which had been prepared by flushing 2-4 mL of acetonitrile followed by 2-4 mL of 10 mM KH2PO4 (pH 2.4). After evaporation of the acetonitrile layer, the solid obtained was redissolved in 0.2 mL of 20% acetonitrile in 10 mM KH2PO4 (pH=2.4). The concentration of MG derivative, 2-methylquinoxaline, was measured using a Beckman Coulter Gold chromatography system. The column was Varian Microsorb-MV 300-5 25 cm C18 column (4.6 mm internal diameter and 5 μm particle diameter). The mobile phase was 80 vol % of 10 mM KH2PO4 and 20 vol % of HPLC grade acetonitrile. […]
Structure (SMILES),protection against peroxide cytotoxicity [1],slope for initial velocity vs. substrate concentration [2],intracellular ROS after H2O2 exposure [3],ROS generated by MG treatment [3],glucose-induced intracellular MG accumulation [4]
"N[C@@H](CCC(=O)N[C@@H](CS)C(=O)NCC(=O)O)C(=O)O [GSH, Glutathione]",dose-dependent protection,0.1954±0.0216,reduction in ROS to the levels in control cells,neutralized effectively,prevented glucose-induced intracellular MG accumulation
"N[C@@H](CNC(=O)N[C@@H](CS)C(=O)NCC(=O)O)C(=O)O [Ψ-GSH, γ-Gla-Cys-Gly-OH]",dose-dependent protection,0.0498±0.0040,reduction in ROS to the levels in control cells,neutralized effectively,prevented glucose-induced intracellular MG accumulation
